The values below come from US20070093455A1, “10-substituted tetracyclines and methods of use thereof” (priority 2005, published 2007).

Structures are written as SMILES. In brackets after ≈: the same amount, converted by molar mass.

Data set [1] deals with S. aureus RN450. Briefly: In vitro MIC assay, S. aureus RN450. The format is cell-based. The note with it: Staphylococcus aureus, broth microdilution, 35° C., 18-24 hours. In general terms: In broth dilution the organism is exposed to a series of concentrations in liquid medium.
Data set [2] has as its system S. aureus MRSA5. Briefly: In vitro MIC assay, S. aureus MRSA5. The format is cell-based. The conditions noted are these: Staphylococcus aureus, broth microdilution, 35° C., 18-24 hours.
Data set [3] concerns S. aureus RN4250. Briefly: In vitro MIC assay, S. aureus RN4250. It counts as cell-based. The conditions noted are these: Staphylococcus aureus, broth microdilution, 35° C., 18-24 hours.
Data set [4] deals with S. pneumoniae 157E. Nature of the data set: In vitro MIC assay, S. pneumoniae 157E. The format is cell-based. The note with it: Streptococcus pneumoniae, broth supplemented with lysed horse blood, 35° C., 18-24 hours.
The test system of data set [5] is E. coli (ATCC 25922). Nature of the data set: In vitro MIC assay, E. coli (ATCC 25922). The format is cell-based. The note with it: Escherichia coli, ATCC25922; broth microdilution, 35° C., 18-24 hours.
The subject of data set [6] is E. coli MG 1655 DWAK. Briefly: In vitro MIC assay, E. coli MG 1655 DWAK. It counts as cell-based. The note with it: Escherichia coli, MG1655DWAK; broth microdilution, 35° C., 18-24 hours. The protocol:
The following assay was used to determine the efficacy of tetracycline compounds against common bacteria. Serial dilutions of compounds were prepared in microdilution plates using a Tecan robotic workstation. Mueller Hinton broth cultures of gram negative and gram positive strains were grown or adjusted to match the turbidity of a 0.5 McFarland standard. 1:200 dilutions were made in appropriate broth (cation supplemented Mueller Hinton broth or Haemophilus test medium) to allow a final inoculum of 1×10^5 cfu. Lysed horse blood was used to supplement broth for testing S. pneumoniae. The plates were incubated at 35° C. in ambient air for 18-24 hours, read spectrophotometrically, and checked manually for evidence of bacterial growth. Serial dilutions of compounds were also added to Brucella agar supplemented with laked sheep blood for P. acnes tests. A standard inoculum was transferred to the plate using a stainless steel replicator. After 48 hours of anaerobic incubation at 35° C. plates were examined. The MIC was defined as the lowest concentration of the tetracycline compound that inhibits growth. Table 3 gives the MIC (μg/mL) of selected substituted tetracycline compounds against a variety of gram positive and gram negative bacteria.

Data set [7] deals with P. aeruginosa K1033. Briefly: In vitro MIC assay, P. aeruginosa K1033. The conditions noted are these: Pseudomonas aeruginosa, broth microdilution, 35° C., 18-24 hours. The format is cell-based.
For data set [8], the system named is H. influenza (ATCC 49247). Briefly: In vitro MIC assay, H. influenza (ATCC 49247). The format is cell-based. The note with it: read-out: MIC H. influenza (ATCC 49247).
Data set [9] concerns B. fragilis (ATCC 25285). Briefly: In vitro MIC assay, B. fragilis (ATCC 25285). The format is cell-based. The note with it: Bacteroides fragilis, ATCC25285.
In data set [10] the test system is B. theraiotaomicron (ATCC 29741). Nature of the data set: In vitro MIC assay, B. theraiotaomicron (ATCC 29741). It counts as cell-based.
Data set [11] concerns P. acnes (ATCC 6919). Briefly: In vitro MIC assay, P. acnes (ATCC 6919). The note with it: Cutibacterium acnes, ATCC6919; Brucella agar with laked sheep blood, 48 hours anaerobic, 35° C. The format is cell-based.
The test system of data set [12] is P. acnes (ATCC 11827). Briefly: In vitro MIC assay, P. acnes (ATCC 11827). It counts as cell-based. The note with it: Cutibacterium acnes, ATCC11827; Brucella agar with laked sheep blood, 48 hours anaerobic, 35° C.
Data set [13] concerns P. acnes (PBS 1073). Nature of the data set: In vitro MIC assay, P. acnes (PBS 1073). The format is cell-based. The note with it: Cutibacterium acnes; Brucella agar with laked sheep blood, 48 hours anaerobic, 35° C.
For data set [14], the system named is P. acnes (PBS 1074). Briefly: In vitro MIC assay, P. acnes (PBS 1074). The conditions noted are these: Cutibacterium acnes; Brucella agar with laked sheep blood, 48 hours anaerobic, 35° C. It counts as cell-based.
For data set [15], the system named is P. acnes (ATCC 1077). Nature of the data set: In vitro MIC assay, P. acnes (ATCC 1077). The conditions noted are these: Cutibacterium acnes, ATCC1077; Brucella agar with laked sheep blood, 48 hours anaerobic, 35° C. The format is cell-based.
The subject of data set [16] is COS-1 or CHO cell. Nature of the data set: Mammalian cell cytotoxicity assay (Resazurin; Alamar Blue). The format is cell-based. The note with it: COS-1 or CHO cells, 24 hour incubation. Here is the method:
To predict the in vivo risks associated with the compounds of the invention, a soluble, non-toxic redox dye (“Resazurin”; Alamar Blue) was used to assess a compound's effect on cellular metabolism. COS-1 or CHO cell suspensions were prepared, seeded into 96-well black-walled microtiter plates, and incubated overnight at 37° C., in 5% CO2 and approximately 95% humidity. On the next day, serial dilutions of test drug were prepared and transferred to cell plates. Following a 24 hour incubation period, the media/drug was aspirated, and 50 μL of resazurin was added. After a 2 hour incubation, fluorescence measurements were taken (excitation […], emission 590 nm) and toxic effects in treated versus control cells were compared based on the degree of fluorescence in each well.
A general note: The colour change of resazurin is a common sign of viable cells or microbes.

Data set [17] concerns Mouse 3T3 fibroblast cells. Nature of the data set: Phototoxicity assay (neutral red). The conditions noted are these: 3T3 cells, incubated in the dark, 150 μM. The format is cell-based. Here is the method: Mouse 3T3 fibroblast cells were harvested and plated at a concentration of 1×10^5 cells/mL. Drug dilutions were made in HBSS and added to the plates. Duplicate plates were then incubated in the dark (for controls), or under UV light (meter reading of 1.6-1.8 mW/cm^2) for 50 minutes. Cells were then washed with HBSS, fresh medium was added, and plates were then incubated overnight. The following day, neutral red was added as an indicator of cell viability and plates were incubated for an additional 3 hours. Cells were then washed with HBSS and a solution of 50% EtOH, 10% glacial acetic acid is added. After a 20 minute incubation period, plates absorbance at 535 nm were read using a Wallac Victor 5 spectrophotometer. The phototoxicity in light-treated and control cultures was then compared.

Data set [18] concerns carrageenan induced paw edema. Briefly: Rat model of carrageenan induced paw edema. The format is in vivo. The note with it: 50 mg/kg IP, 3 hours after carrageenan injection, positive control. Here is the method:
Carrageenan-induced paw edema represents a commonly used experimental model to assess the anti-inflammatory properties of agents. In this example, male Sprague-Dawley rats (Charles River, Mass.) weighing 175-250 grams were used. Test compounds were administered intraperitoneally 5 minutes or orally 15 minutes before a subplantar injection of carrageenan (5 mg/1 ml) in the rat right hind paw. The paw volume (ml) was monitored with a plethysmometer (Water Plethysmometer) at time of carrageenan injection (baseline) and 3 hours after carrageenan injection. […] Both results were statistically significant with a p<0.1 level by Kruskal-Wallis One Way ANOVA, ChiSquare. There were approximately four rats per group.

With `CC1CCN(Cc2cccc3c2CC2CC4[C@@H](N(C)C)C(O)=C(C(N)=O)C(=O)[C@@]4(O)C(O)=C2C3=O)CC1` (stereo partly shown) [K], the MIC in [1], in data set [2], in data set [3], in data set [4], in [5] and in [6] was 0 to 21 µg/mL in each case. In addition, the MIC in [7] lay within 0 to 21 µg/mL; in data set [8], 0 to 21 µg/mL; in data set [9], 0 to 8 µg/mL; in [10], 28 to 32 µg/mL (≈ 54.9 to 62.8 µM); in data set [11] it was 0 to 8 µg/mL; in data set [12] it was 0 to 8 µg/mL. Further, the MIC in data set [13], in data set [14] and in data set [15] was 28 to 32 µg/mL (≈ 54.9 to 62.8 µM) throughout. Also, the “cytotoxicity at 75 μg/mL” value in data set [16] is listed as “minimal cytotoxicity”.
Regarding `CC(=O)c1cccc2c1CC1CC3[C@H](N(C)C)C(O)=C(C(N)=O)C(=O)[C@@]3(O)C(O)=C1C2=O` (stereo partly shown) [J], the MIC in [1], in [2], in data set [3], in data set [4], in [5] and in [6] was 0 to 21 µg/mL in each case. For the same compound, the MIC in data set [7] is 0 to 21 µg/mL; in data set [8], 0 to 21 µg/mL; in [9], 0 to 8 µg/mL; in [10] it was 28 to 32 µg/mL (≈ 63.6 to 72.7 µM); in data set [11] it was 0 to 8 µg/mL; in [12], 0 to 8 µg/mL. Besides, the MIC in data set [13], in data set [14] and in [15] was 28 to 32 µg/mL (≈ 63.6 to 72.7 µM) throughout. For the same compound, in data set [16], the “cytotoxicity at 75 μg/mL” value is listed as “minimal cytotoxicity”. Moreover, the “phototoxicity at 150 μM, incubated in the dark” value in data set [17] is “not to be appreciably phototoxic”.
As to `CN(C)c1ccc(O)c2c1C[C@H]1C[C@H]3[C@H](N(C)C)C(O)=C(C(N)=O)C(=O)[C@@]3(O)C(O)=C1C2=O` [Minocycline, reference compound], the “reduced inflammation relative to the untreated control” value in data set [18] worked out at 70%.
